From patent publication US20200085791A1, “[(PHENYLSULFONYL)OCTAHYDRO-EPIMINOISOINDOL-YL](1H-1,2,3-TRIAZOL-5-YL)METHANONES” (Bayer Pharma Aktiengesellschaft, priority 2016, published 2020) come the findings set out here.

This assay deals with T1, recombinant human AKR1C3 (Aldo-keto reductase family 1 member C3) (Homo sapiens, UniProt P42330).
T1 construct: GST (cleaved yes); made in house; host or cells: E. coli
T1 sequence (P42330 1-323): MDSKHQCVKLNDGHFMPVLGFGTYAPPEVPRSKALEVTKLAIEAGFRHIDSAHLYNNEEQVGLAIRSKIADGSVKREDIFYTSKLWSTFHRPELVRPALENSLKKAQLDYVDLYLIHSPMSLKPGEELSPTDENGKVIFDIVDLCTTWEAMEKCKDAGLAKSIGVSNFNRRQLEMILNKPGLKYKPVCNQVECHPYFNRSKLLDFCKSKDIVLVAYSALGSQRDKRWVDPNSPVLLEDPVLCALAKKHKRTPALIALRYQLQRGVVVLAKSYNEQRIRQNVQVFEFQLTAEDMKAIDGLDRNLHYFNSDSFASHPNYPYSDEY
Kind of assay: In Vitro Assay 1: AKR1C3-inhibitory activity (Coumberone to Coumberol fluorescence assay). The assay is classed as biochemical. Particulars: recombinant enzyme, Coumberone 0.3 μM, NADPH 10 μM, 15 min pre-incubation, 4-parameter fit; average or median values. How it is done:
In Vitro Assay 1: AKR1C3-Inhibitory Activity
The AKR1C3-inhibitory activity of the substances of the present invention was measured in the AKR1C3 assay described in the paragraphs below.
Essentially, the enzyme activity is measured by quantification of the Coumberol from Coumberone (Halim, M., Yee, D. J., and Sames, D., J. AM. CHEM. SOC. 130, 14123-14128 (2008) and Yee, D. J., Balsanek, V., Bauman, D. R., Penning, T. M., and Sames, D., Proc. Natl. Acad. Sci. USA 103, 13304-13309 (2006)). In this test, the increase of the highly fluorescent Coumberol by NADPH- (nicotinamide adenine dinucleotide phosphate)-dependent reduction of the non-fluorescent Coumberone by AKR1C3 can be determined.
The enzyme used was recombinant human AKR1C3 (Aldo-keto reductase family 1 member C3) (GenBank Accession No. NM_003739). This was expressed in E. coli as GST (glutathione S transferase) fusion protein and purified by glutathione Sepharose affinity chromatography. The GST was removed by digestion with thrombin and subsequent size exclusion chromatography (Dufort, I., Rheault, P., Huang, X F., Soucy, P., and Luu-The, V., Endocrinology 140, 568-574 (1999)).
For the assay, 50 nl of a 100-fold concentrated solution of the test substance in DMSO were pipetted into a black low-volume 384-well microtiter plate (Greiner Bio-One, Frickenhausen, Germany), 2.5 μl of a solution of AKR1C3 in assay buffer [50 mM potassium phosphate buffer pH 7, 1 mM DTT, 0.0022% (w/v) Pluronic F-127, 0.01% BSA (w/v) and protease inhibitor cocktail (Complete, EDTA-free Protease Inhibitor Cocktail from Roche)] were added and the mixture was incubated for 15 min to allow pre-binding of the substances to the enzyme prior to the enzyme reaction. The enzyme reaction was then started by addition of 2.5 μl of a solution of NADPH (20 μM→final concentration in 5 μl of assay volume is 10 μM) and Coumberone (0.6 μM→final concentration in 5 μl of assay volume is 0.3 μM) in assay buffer, and the resulting mixture was incubated at […] for the reaction time of typically 90 min. The concentration of the AKR1C3 and the reaction time was adapted to the respective activity of the enzyme preparation and adjusted such that the assay was carried out in the linear range.
Typical AKR1C3 concentrations were in the region of 1 nM. The reaction was stopped by addition of 2.5 μl of a stop solution consisting of the inhibitor EM-1404 [F. Labrie et al. U.S. Pat. No. 6,541,463, 2003] (3 μM→final concentration in 7.5 μl of assay volume is 1 μM). The fluorescence of the Coumberole was then measured at 520 nm (excitation at 380 nm) using a suitable measuring instrument (Pherastar from BMG Labtechnologies). The intensity of the fluorescence was used as a measure of the amount of Coumberole formed and thus of the enzyme activity of AKR1C3. The data were normalized (enzyme reaction without inhibitor—0% inhibition; all other assay components, but no enzyme=100% inhibition).
For `Cc1cc(C)c(S(=O)(=O)N2[C@@H]3CC[C@H]2[C@@H]2CN(C(=O)c4cnn[nH]4)C[C@@H]23)c(C)c1` [Example 34, 1H-1,2,3-triazol-5-yl{(3aR,4R,7S,7aS)-8-[(2,4,6-trimethylphenyl)sulfonyl]octahydro-2H-4,7-epiminoisoindol-2-yl}methanone], the IC50 (usually the point on the concentration scale where inhibition reaches its midpoint) amounted to 27 nM.
With `O=C(c1cnn[nH]1)N1C[C@@H]2[C@H](C1)[C@H]1CC[C@@H]2N1S(=O)(=O)c1ccccc1[N+](=O)[O-]` [Example 35, {(3aR,4R,7S,7aS)-8-[(2-nitrophenyl)sulfonyl]octahydro-2H-4,7-epiminoisoindol-2-yl}(1H-1,2,3-triazol-5-yl)methanone], the IC50 came out at 4 nM.
To `COc1ccc(OC)c(S(=O)(=O)N2[C@@H]3CC[C@H]2[C@@H]2CN(C(=O)c4cnn[nH]4)C[C@@H]23)c1` [Example 36, {(3aR,4R,7S,7aS)-8-[(2,5-dimethoxyphenyl)sulfonyl]octahydro-2H-4,7-epiminoisoindol-2-yl}(1H-1,2,3-triazol-5-yl)methanone] belongs 935 nM; to `O=C(c1cnn[nH]1)N1C[C@@H]2[C@H](C1)[C@H]1CC[C@@H]2N1S(=O)(=O)c1ccc(Cl)c(Cl)c1` [Example 37, {(3aR,4R,7S,7aS)-8-[(3,4-dichlorophenyl)sulfonyl]octahydro-2H-4,7-epiminoisoindol-2-yl}(1H-1,2,3-triazol-5-yl)methanone], 82 nM; to `CCc1ccc(S(=O)(=O)N2[C@@H]3CC[C@H]2[C@@H]2CN(C(=O)c4cnn[nH]4)C[C@@H]23)cc1` [Example 38, {(3aR,4R,7S,7aS)-8-[(4-ethylphenyl)sulfonyl]octahydro-2H-4,7-epiminoisoindol-2-yl}(1H-1,2,3-triazol-5-yl)methanone], 193 nM.
Next, `O=C(c1cnn[nH]1)N1C[C@@H]2[C@H](C1)[C@H]1CC[C@@H]2N1S(=O)(=O)c1ccc(F)cc1Cl` [Example 39, {(3aR,4R,7S,7aS)-8-[(2-chloro-4-fluorophenyl)sulfonyl]octahydro-2H-4,7-epiminoisoindol-2-yl}(1H-1,2,3-triazol-5-yl)methanone]: 4 nM; `Cc1cccc(Cl)c1S(=O)(=O)N1[C@@H]2CC[C@H]1[C@@H]1CN(C(=O)c3cnn[nH]3)C[C@@H]12` [Example 40, {(3aR,4R,7S,7aS)-8-[(2-chloro-6-methylphenyl)sulfonyl]octahydro-2H-4,7-epiminoisoindol-2-yl}(1H-1,2,3-triazol-5-yl)methanone]: 3 nM; `COc1ccc(S(=O)(=O)N2[C@@H]3CC[C@H]2[C@@H]2CN(C(=O)c4cnn[nH]4)C[C@@H]23)cc1OC` [Example 41, {(3aR,4R,7S,7aS)-8-[(3,4-dimethoxyphenyl)sulfonyl]octahydro-2H-4,7-epiminoisoindol-2-yl}(1H-1,2,3-triazol-5-yl)methanone]: 731 nM.
Next, `O=C(c1cnn[nH]1)N1C[C@@H]2[C@H](C1)[C@H]1CC[C@@H]2N1S(=O)(=O)c1cccc(Cl)c1Cl` [Example 42, {(3aR,4R,7S,7aS)-8-[(2,3-dichlorophenyl)sulfonyl]octahydro-2H-4,7-epiminoisoindol-2-yl}(1H-1,2,3-triazol-5-yl)methanone]: 7 nM; `N#Cc1ccc(S(=O)(=O)N2[C@@H]3CC[C@H]2[C@@H]2CN(C(=O)c4cnn[nH]4)C[C@@H]23)cc1` [Example 43, 4-{[(3aR,4R,7S,7aS)-2-(1H-1,2,3-triazol-5-ylcarbonyl)octahydro-1H-4,7-epiminoisoindol-8-yl]sulfonyl}benzonitrile]: 855 nM.
Consider `N#Cc1ccccc1S(=O)(=O)N1[C@@H]2CC[C@H]1[C@@H]1CN(C(=O)c3cnn[nH]3)C[C@@H]12` [Example 44, 2-{[(3aR,4R,7S,7aS)-2-(1H-1,2,3-triazol-5-ylcarbonyl)octahydro-1H-4,7-epiminoisoindol-8-yl]sulfonyl}benzonitrile], for which the IC50 came out at 58 nM.
With `O=C(c1cnn[nH]1)N1C[C@@H]2[C@H](C1)[C@H]1CC[C@@H]2N1S(=O)(=O)c1cccc2nsnc12` [Example 45, [(3aR,4R,7S,7aS)-8-(2,1,3-benzothiadiazol-4-ylsulfonyl)octahydro-2H-4,7-epiminoisoindol-2-yl](1H-1,2,3-triazol-5-yl)methanone], the IC50 was found to be 109 nM.
To `O=C(c1cnn[nH]1)N1C[C@@H]2[C@H](C1)[C@H]1CC[C@@H]2N1S(=O)(=O)c1cccc2nonc12` [Example 46, [(3aR,4R,7S,7aS)-8-(2,1,3-benzoxadiazol-4-ylsulfonyl)octahydro-2H-4,7-epiminoisoindol-2-yl](1H-1,2,3-triazol-5-yl)methanone] belongs 59 nM; to `COc1ccc(Cl)cc1S(=O)(=O)N1[C@@H]2CC[C@H]1[C@@H]1CN(C(=O)c3cnn[nH]3)C[C@@H]12` [Example 47, {(3aR,4R,7S,7aS)-8-[(5-chloro-2-methoxyphenyl)sulfonyl]octahydro-2H-4,7-epiminoisoindol-2-yl}(1H-1,2,3-triazol-5-yl)methanone], 85 nM; to `O=C(c1cnn[nH]1)N1C[C@@H]2[C@H](C1)[C@H]1CC[C@@H]2N1S(=O)(=O)c1ccc2nsnc2c1` [Example 48, [(3aR,4R,7S,7aS)-8-(2,1,3-benzothiadiazol-5-ylsulfonyl)octahydro-2H-4,7-epiminoisoindol-2-yl](1H-1,2,3-triazol-5-yl)methanone], 213 nM.
To `O=C(c1cnn[nH]1)N1C[C@@H]2[C@H](C1)[C@H]1CC[C@@H]2N1S(=O)(=O)c1ccc(F)c(F)c1F` [Example 49, 1H-1,2,3-triazol-5-yl{(3aR,4R,7S,7aS)-8-[(2,3,4-trifluorophenyl)sulfonyl]octahydro-2H-4,7-epiminoisoindol-2-yl}methanone] belongs 148 nM; to `N#Cc1cc(S(=O)(=O)N2[C@@H]3CC[C@H]2[C@@H]2CN(C(=O)c4cnn[nH]4)C[C@@H]23)ccc1F` [Example 50, 2-fluoro-5-{[(3aR,4R,7S,7aS)-2-(1H-1,2,3-triazol-5-ylcarbonyl)octahydro-1H-4,7-epiminoisoindol-8-yl]sulfonyl}benzonitrile], 999 nM; to `O=C(c1cnn[nH]1)N1C[C@@H]2[C@H](C1)[C@H]1CC[C@@H]2N1S(=O)(=O)c1cc(Cl)ccc1F` [Example 51, {(3aR,4R,7S,7aS)-8-[(5-chloro-2-fluorophenyl)sulfonyl]octahydro-2H-4,7-epiminoisoindol-2-yl}(1H-1,2,3-triazol-5-yl)methanone], 3 nM.
To `O=C(c1cnn[nH]1)N1C[C@@H]2[C@H](C1)[C@H]1CC[C@@H]2N1S(=O)(=O)c1cc(F)c(F)cc1F` [Example 52, 1H-1,2,3-triazol-5-yl{(3aR,4R,7S,7aS)-8-[(2,4,5-trifluorophenyl)sulfonyl]octahydro-2H-4,7-epiminoisoindol-2-yl}methanone] belongs 21 nM.
With `Cc1ccc(Cl)cc1S(=O)(=O)N1[C@@H]2CC[C@H]1[C@@H]1CN(C(=O)c3cnn[nH]3)C[C@@H]12` [Example 53, {(3aR,4R,7S,7aS)-8-[(5-chloro-2-methylphenyl)sulfonyl]octahydro-2H-4,7-epiminoisoindol-2-yl}(1H-1,2,3-triazol-5-yl)methanone], the IC50 amounted to 2 nM.
Next, `COc1ccccc1S(=O)(=O)N1[C@@H]2CC[C@H]1[C@@H]1CN(C(=O)c3cnn[nH]3)C[C@@H]12` [Example 54, {(3aR,4R,7S,7aS)-8-[(2-methoxyphenyl)sulfonyl]octahydro-2H-4,7-epiminoisoindol-2-yl}(1H-1,2,3-triazol-5-yl)methanone]: 13 nM.
